{
  "source": "paper PMC9679992",
  "about": "“Fusicoccin-A Targets Cancerous Inhibitor of Protein Phosphatase 2A by Stabilizing a C-Terminal Interaction with 14-3-3” (ACS Chemical Biology, 2022)",
  "key": {"GST-14-3-3η / CIP2A": {"test_system": "GST-14-3-3η / CIP2A", "experiment": "GST-14-3-3η pulldown of CIP2A, MDA-MB-468 cell lysates", "assay_type": "binding", "details": "lysate preincubated with 200 μM ATP, 10 mM MgCl2, 1 hour 37 °C", "method": "(§1) (A) Cartoon showing FC-A coupled to magnetic hydrazide beads. (B) Western blot showing the results of an FC-beads pulldown experiment in MDA-MB-468 cell lysates. (C) Western blot of the GST14-3-3η pulldown of CIP2A in MDA-MB-468 cell lysates. […] (D) Western blot of MDA-MB-468 cell lysates after treatment of cells with 30 μM FC-A or a vehicle control for 24 h before harvest. Quantification was performed after normalization to an actin loading control. […] Membrane was probed with our custom CIP2A pS904, C-terminal CIP2A, and actin antibodies. (E) Western blot of GST14-3-3η pulldown of CIP2A in MDA-MB-468 cell lysates from cells either treated with 30 μM FC-A or a vehicle control for 24 h before harvest. Representative Western blots are shown of three (B–D) or two (E) independent experiments."}, "GST-14-3-3η": {"target": "T1, GST-14-3-3η (Homo sapiens, UniProt Q04917)", "T1 construct": "made in house; host or cells: Rosetta 2 (DE3)pLysS E. coli", "T1 sequence (Q04917 1-246)": "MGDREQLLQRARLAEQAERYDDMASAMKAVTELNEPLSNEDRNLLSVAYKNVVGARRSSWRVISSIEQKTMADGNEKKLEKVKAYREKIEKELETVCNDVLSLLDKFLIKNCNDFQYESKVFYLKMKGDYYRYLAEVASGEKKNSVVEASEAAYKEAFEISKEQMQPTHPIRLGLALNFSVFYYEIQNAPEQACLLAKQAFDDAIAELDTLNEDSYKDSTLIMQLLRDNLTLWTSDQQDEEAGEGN", "experiment": "Fluorescent polarization, GST14-3-3η titrated to FAM-pCIP2A peptide", "assay_type": "binding, Hs", "details": "FP, GST14-3-3η titrated to 100 nM FAM peptide, PBS pH 7.5, RT, 30 min", "experimental": "Data is shown as mean ± SEM of three independent experiments. (E) Fluorescent polarization GST14-3-3η concentration–response curves generated in the presence of 10 μM FC-A or buffer using 100 nM of peptide 3. (F) Fluorescent polarization concentration–response curve of FC-A stabilizing the interaction between 1.5 μM GST14-3-3η and 100 nM peptide 3. Data is presented as the mean ± SEM of three independent experiments.\nFirst, concentration–response curves were made using peptide 3, which was N-terminally labeled with fluorescein and in which Ser904 is phosphorylated by titrating to N-terminally GST-tagged 14-3-3η (GST-14-3-3η) at a fixed concentration of FC-A (10 μM) or a buffer control.\npeptide was dissolved in phosphate saline buffer (PBS) with a pH of 7.5. Concentration curves of recombinant GST-14-3-3η were produced by mixing various concentrations of the protein diluted in assay buffer (PBS, pH=7.5) with a fixed 100 nM of the FAM labelled peptide and either a DMSO vehicle control or a fixed 10 μM Fusicoccin – A (FC-A). FC-A concentration curves were generated by mixing various concentrations of FC-A diluted in PBS with a fixed 100 nM of FAM - CIP2A and a fixed 4.7 μM of GST-14-3-3η. […]"}, "14-3-3η/pCIP2A complex": {"test_system": "14-3-3η/pCIP2A complex", "experiment": "Fluorescent polarization, FC-A stabilization of 14-3-3η/pCIP2A", "parameters": "species or system Hs", "details": "FP, FC-A titrated to 100 nM peptide 3 and 1.5 μM GST14-3-3η (legend; SI: 4.7 μM); PBS, RT, 30 min; mean of three independent experiments; read-out: EC50 (FC-A enhancing binding of 14-3-3η to pCIP2A)", "text": "Figure 1 The C-terminus of CIP2A contains a mode-III 14-3-3 binding motif. (A) CIP2A’s C-terminus overlaid with 14-3-3 mode-III binding motif. The putative phosphosite is highlighted red with an alignment of the C-terminal amino acid sequence of CIP2A from different species shown below. (B) Chemical structure of Fusicoccin-A. (C) Overview of N-terminally biotinylated or fluorescein labeled CIP2A peptides either non- or phosphorylated on Ser904. (D) Homogeneous time-resolved FRET (HTRF) assay in which an N-terminally GST tagged 14-3-3η is targeted with an anti-GST europium (Eu) cryptate labeled monoclonal antibody and CIP2A peptides 1 and 2 used are N-terminally biotinylated and labeled with streptavidin conjugated to XL665. Concentration–response curves are shown for peptide 1 (Ser904) and peptide 2 (pSer904) in the presence or absence of a fixed 10 μM FC-A and 10 nM GST14-3-3η. Data is shown as mean ± SEM of three independent experiments. […]\nFC-A beads were produced in a two-step reaction as previously described by Feyerabend and Weiler, 1987 by first generating FC-aldehyde (FC-Ald) which, was subsequently coupled to magnetic hydrazide beads (Chemicell, Cat#1404). […] Before coupling to magnetic hydrazide beads reaction efficiency was determined by HPLC analysis. […]"}, "CIP2A Ser904": {"test_system": "CIP2A Ser904", "assay_type": "cell-based", "method": "as §1, with “experiments. […]” for “experiments.”"}, "CIP2A": {"test_system": "CIP2A", "assay_type": "cell-based", "method": "as §1, with “experiments. […]” for “experiments.”"}, "CIP2A / 14-3-3": {"test_system": "CIP2A / 14-3-3", "experiment": "GST14-3-3η pulldown of CIP2A from FC-A treated MDA-MB-468 cells", "assay_type": "cell-based", "details": "cells treated with 30 μM FC-A 24 h vs control; two independent experiments", "method": "as §1, with “experiments. […]” for “experiments.”"}, "[1]": {"test_system": "cancer cells, including breast cancer", "details": "FC-A and its derivatives; cited from earlier work", "text": "It has been shown that polo-like kinase 1 (PLK1) can bind to the C-terminal tip of CIP2A and phosphorylate its penultimate residue Ser904.[11] We hypothesized that phosphorylation of Ser904 could create a C-terminal binding site for the regulatory proteins 14-3-3, which act as molecular scaffolds in the cell through regulation of protein–protein interactions (PPIs) in key cellular processes. A unique feature of a subset of C-terminal 14-3-3 interactions is that they can be targeted by the diterpene glucoside Fusicoccin-A (FC-A) for PPI stabilization.[12],[13] In several studies, FC-A and its d ..."}, "ERα": {"test_system": "ERα", "details": "cited from earlier work"}, "H^+-ATPase": {"test_system": "H^+-ATPase", "details": "14-3-3/FC-A; cited from earlier work"}, "[2]": {"target": "T2, 14-3-3η (N-terminally GST tagged) (Homo sapiens, UniProt Q04917)", "T2 construct": "made in house; host or cells: Rosetta 2 (DE3)pLysS E. coli", "T2 sequence (Q04917 1-246)": "T1 sequence (Q04917 1-246)", "experiment": "HTRF assay of CIP2A C-terminal peptides with GST14-3-3η", "assay_type": "binding, Hs", "details": "HTRF concentration–response, nonphosphorylated peptide; 10 nM GST14-3-3η; presence or absence of 10 μM FC-A", "quoted_text": "Therefore, using (non)phosphorylated C-terminal CIP2A peptides, we investigated whether 14-3-3 could directly interact with CIP2A (Figure 1C). First, we developed a homogeneous time-resolved FRET (HTRF) assay for this putative interaction and its phosphorylation dependence (Figure 1D). […] Europium is excited at a wavelength of 337 nm resulting in emission at a wavelength of 620 nm. If 14-3-3 interacts with the CIP2A peptide, resonance energy transfer can occur resulting in excitation and emission of XL665 at a wavelength of 665 nm.\nData is shown as mean ± SEM of three independent experiments. […] Data is presented as the mean ± SEM of three independent experiments."}},
  "note": "Like-named read-outs stand apart in the source and are kept apart here. Peptide text beside a SMILES is read from it. * marks the point of attachment. Cbz = O=C(OCc1ccccc1)*",
  "data": [
    {"compound": "Nc1ncnc2c1ncn2[C@@H]1O[C@H](COP(=O)(O)OP(=O)(O)OP(=O)(O)O)[C@@H](O)[C@H]1O", "note": "[ATP]", "values": [
      {"measurement": "effect on CIP2A pulldown by GST-14-3-3η", "setting": "GST-14-3-3η / CIP2A", "value": "more CIP2A was identified in pulldown samples"}
    ]},
    {"compound": "CC[C@H](C)[C@H](NC(=O)[C@H](COP(=O)(O)O)NC(=O)[C@H](CC(C)C)NC(=O)[C@H](CC(N)=O)NC(=O)[C@@H](NC(=O)[C@@H](NC(=O)[C@H](CCC(=O)O)NC(=O)[C@@H]1CCCN1C(=O)[C@H](CC(N)=O)NC(=O)[C@@H](NC(=O)c1ccc2c(c1)C(=O)OC21c2ccc(O)cc2Oc2cc(O)ccc21)[C@@H](C)CC)[C@@H](C)O)C(C)C)C(=O)O", "note": "[FAM-pCIP2A peptide]", "values": [
      {"measurement": "EC50", "setting": "GST-14-3-3η; buffer / DMSO control, read-out: EC50", "value": 118, "unit": "µM"},
      {"measurement": "EC50", "setting": "GST-14-3-3η; fixed 10 μM FC-A, read-out: EC50 (shift in presence of FC-A)", "value": 2.76, "unit": "µM"}
    ]},
    {"compound": "C=CC(C)(C)OC[C@H]1O[C@H](O[C@@H]2C3=C([C@H](C)COC(C)=O)C[C@H](O)[C@]3(C)/C=C3/[C@@H](COC)CC[C@H]3[C@@H](C)[C@H]2O)[C@H](O)[C@@H](OC(C)=O)[C@@H]1O", "note": "[FC-A, Fusicoccin-A]", "values": [
      {"measurement": "EC50", "setting": "14-3-3η/pCIP2A complex", "value": 11.8, "unit": "µM"},
      {"measurement": "Fold Change (Norm. to CTL): CIP2A pS904", "setting": "CIP2A Ser904", "value": 2.55},
      {"measurement": "effect on Ser904 phosphorylation levels", "setting": "CIP2A Ser904; FC-A 24 h, MDA-MB-468", "value": "Ser904 phosphorylation levels were enhanced"},
      {"measurement": "Fold Change (Norm. to CTL): CIP2A Tot.", "setting": "CIP2A", "value": 0.79},
      {"measurement": "effect on total CIP2A in presence of cycloheximide", "setting": "CIP2A; 30 μM FC-A with 100 µg/mL cycloheximide, 24 h, MDA-MB-468, three independent experiments", "value": "no changes in total CIP2A over a 24 h period"},
      {"measurement": "effect on total CIP2A", "setting": "CIP2A; FC-A 24 h, MDA-MB-468", "value": "did not affect total CIP2A"},
      {"measurement": "CIP2A in GST-14-3-3η pulldown", "setting": "CIP2A / 14-3-3", "value": "more CIP2A could be detected in these samples compared to control cell lysates"},
      {"measurement": "antiproliferative effects", "setting": "[1]", "value": "antiproliferative effects in cancer cells, including breast cancer"},
      {"measurement": "effect on detection of C-terminal phosphorylation of ERα", "setting": "ERα; MCF-7 cells treated with FC-A", "value": "necessary to detect C-terminal phosphorylation of the ERα"},
      {"measurement": "protection of penultimate C-terminal phosphorylation site", "setting": "H^+-ATPase", "value": "shields the penultimate C-terminal phosphorylation site from phosphatases"}
    ]},
    {"compound": "CC(C)C[C@@H](C=O)NC(=O)[C@H](CC(C)C)NC(=O)[C@H](CC(C)C)NC(=O)OCc1ccccc1", "note": "[MG132] (Cbz-Leu-Leu-Leu-aldehyde)", "values": [
      {"measurement": "effect on phosphorylation of ERα C-terminal tip", "setting": "ERα; proteasome inhibitor MG132, in addition to FC-A", "value": "additional requirement for phosphorylation of the C-terminal tip"}
    ]},
    {"compound": "Bio-LSSGGKINPETVNL-S^904-I-COOH [peptide 1, N-terminally biotinylated nonphosphorylated C-terminal CIP2A peptide]", "values": [
      {"measurement": "interaction with 14-3-3", "setting": "[2]", "value": "does not interact with 14-3-3"}
    ]}
  ]
}
